ChEMBL document CHEMBL5365457, “Selective HDAC3 Inhibitors with Potent In Vivo Antitumor Efficacy against Triple-Negative Breast Cancer” (J Med Chem, 2023)
pIC50: −log10 of the molar value. The source made the active and inactive calls. No cut-off for these calls is given here.

Experiments:
MDA-MB-231 = assay: Cytotoxicity against human MDA-MB-231 cells assessed as inhibition of cell growth incubated for 72 hrs by MTT assay; type: functional, cell-based; details: MDA-MB-231, 72 h
[1] = Cytotoxicity against human HEK293 cells assessed as inhibition of cell growth incubated for 72 hrs by MTT assay; type: toxicity, cell-based
[2] = Tmax in Wistar rat at 15 mg/kg, ip measured upto 24 hrs by HPLC analysis; type: ADME, organism-based; details: in vivo
Histone deacetylase 8 = molecular target: T1, Histone deacetylase 8 (Homo sapiens, UniProt Q9BY41); assay: Inhibition of human recombinant HDAC8 incubated for 15 mins by fluorescence based microplate analysis
T1 sequence (Q9BY41 whole entry): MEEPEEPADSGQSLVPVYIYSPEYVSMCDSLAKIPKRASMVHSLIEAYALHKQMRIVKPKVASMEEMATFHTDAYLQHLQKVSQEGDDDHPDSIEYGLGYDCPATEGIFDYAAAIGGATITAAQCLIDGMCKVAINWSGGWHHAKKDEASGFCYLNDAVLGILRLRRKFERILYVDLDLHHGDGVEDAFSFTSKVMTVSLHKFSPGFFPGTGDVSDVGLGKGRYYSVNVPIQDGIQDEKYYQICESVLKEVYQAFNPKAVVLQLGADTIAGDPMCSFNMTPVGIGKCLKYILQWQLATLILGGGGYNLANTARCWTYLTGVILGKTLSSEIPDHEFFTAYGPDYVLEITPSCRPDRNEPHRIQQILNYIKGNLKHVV

[3] = molecular target: T2, Protein deacetylase HDAC6 (Homo sapiens, UniProt Q9UBN7); assay: Inhibition of human recombinant HDAC6 incubated for 10 mins by fluorescence based microplate analysis
T2 sequence (Q9UBN7 whole entry): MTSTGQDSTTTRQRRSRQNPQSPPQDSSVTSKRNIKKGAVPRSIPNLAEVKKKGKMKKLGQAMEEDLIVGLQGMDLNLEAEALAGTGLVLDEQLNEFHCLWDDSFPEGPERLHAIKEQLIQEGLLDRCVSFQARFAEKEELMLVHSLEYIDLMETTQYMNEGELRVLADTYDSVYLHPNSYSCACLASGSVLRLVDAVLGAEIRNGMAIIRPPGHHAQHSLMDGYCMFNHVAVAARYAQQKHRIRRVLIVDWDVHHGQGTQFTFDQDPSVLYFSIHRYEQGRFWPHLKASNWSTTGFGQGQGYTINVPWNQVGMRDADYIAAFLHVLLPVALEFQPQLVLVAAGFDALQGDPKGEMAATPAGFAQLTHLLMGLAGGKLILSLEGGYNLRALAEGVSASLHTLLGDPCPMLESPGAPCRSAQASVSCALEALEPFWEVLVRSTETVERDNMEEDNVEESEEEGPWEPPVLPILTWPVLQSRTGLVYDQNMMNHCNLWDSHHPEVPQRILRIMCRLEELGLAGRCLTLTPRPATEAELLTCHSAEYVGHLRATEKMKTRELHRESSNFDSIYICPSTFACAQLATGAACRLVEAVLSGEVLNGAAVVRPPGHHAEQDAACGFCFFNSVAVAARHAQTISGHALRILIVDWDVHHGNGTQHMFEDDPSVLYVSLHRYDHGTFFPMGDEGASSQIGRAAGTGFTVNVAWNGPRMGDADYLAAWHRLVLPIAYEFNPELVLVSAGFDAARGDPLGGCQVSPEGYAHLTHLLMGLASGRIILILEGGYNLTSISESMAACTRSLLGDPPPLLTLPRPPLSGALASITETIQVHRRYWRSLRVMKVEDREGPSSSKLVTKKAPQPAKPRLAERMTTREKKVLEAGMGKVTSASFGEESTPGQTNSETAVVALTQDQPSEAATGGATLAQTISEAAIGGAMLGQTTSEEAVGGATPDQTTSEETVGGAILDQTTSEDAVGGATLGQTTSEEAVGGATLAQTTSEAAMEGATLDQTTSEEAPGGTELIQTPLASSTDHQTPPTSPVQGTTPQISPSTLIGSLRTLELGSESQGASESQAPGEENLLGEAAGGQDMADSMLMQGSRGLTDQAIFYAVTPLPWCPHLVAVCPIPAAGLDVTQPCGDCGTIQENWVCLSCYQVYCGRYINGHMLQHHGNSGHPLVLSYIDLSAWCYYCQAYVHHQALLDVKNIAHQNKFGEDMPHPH

[4] = Selectivity ratio of IC50 for cytotoxicity against human MCF-10A cells assessed as inhibition of cell growth to IC50 for cytotoxicity against human MDA-MB-231 cells assessed as inhibition of cell growth; type: toxicity, cell-based; details: MCF-10A cells versus MDA-MB-231 cells, read-out: Ratio IC50
[5] = Selectivity ratio of IC50 for cytotoxicity against human HCEC cells assessed as inhibition of cell growth to IC50 for cytotoxicity against human MCF7 cells assessed as inhibition of cell growth; type: toxicity, cell-based; details: HCEC cells versus MCF7 cells, read-out: Ratio IC50
4T1 [6] = assay: Cell cycle arrest in mouse 4T1 cells assessed as accumulation of cells at G2/M phase at 110 nM incubated for 72 hrs by flow cytometry; type: functional
[7] = Metabolic stability in rat liver microsome assessed as half life preincubated for 5 mins followed by NADPH addition and measured after 60 mins by HPLC analysis; type: ADME; details: liver microsomes, time 65 min
4T1 [8] = assay: Antitumor activity against mouse 4T1 cells implanted in BALB/c mouse assessed as reduction in tumor weight at 15 mg/kg, ip administered 5 times a week for 21 days; type: functional; details: time 21 day
4T1 [9] = assay: Antitumor activity against mouse 4T1 cells implanted in BALB/c mouse assessed as increase in apoptosis in tumor tissue at 5 to 15 mg/kg, ip by TUNEL staining based microscopic analysis; type: functional, organism-based; details: dose 5-15 mg/kg
4T1 [10] = assay: Antitumor activity against mouse 4T1 cells implanted in BALB/c mouse assessed as reduction in Ki-67 expression in tumor tissue at 5 to 15 mg/kg, ip measured for 21 days by fluorescence based microscopic analysis; type: functional, organism-based; details: dose 5-15 mg/kg, time 21.0 day
[11] = Toxicity in BALB/c mouse implanted with mouse 4T1 cells assessed as spleen damage at 5 to 15 mg/kg, ip measured after 21 days by H and E staining based assay; type: organism-based; details: in vivo, 504 h, dose 5-15 mg/kg, time 21 day
[12] = Toxicity in BALB/c mouse implanted with mouse 4T1 cells assessed as effect on cell shape in kidney at 5 to 15 mg/kg, ip measured after 21 days by H and E staining based assay; type: organism-based; details: in vivo, 504 h, dose 5-15 mg/kg, time 21 day
[13] = Toxicity in BALB/c mouse implanted with mouse 4T1 cells assessed as effect on cell shape in spleen at 5 to 15 mg/kg, ip measured after 21 days by H and E staining based assay; type: organism-based; details: in vivo, 504 h, dose 5-15 mg/kg, time 21 day
[14] = Toxicity in BALB/c mouse implanted with mouse 4T1 cells assessed as effect on cell size in heart at 5 to 15 mg/kg, ip measured after 21 days by H and E staining based assay; type: organism-based; details: in vivo, 504 h, dose 5-15 mg/kg, time 21 day
[15] = Toxicity in BALB/c mouse implanted with mouse 4T1 cells assessed as spleen fibrosis at 5 to 15 mg/kg, ip measured after 21 days; type: organism-based; details: in vivo, 504 h, dose 5-15 mg/kg, time 21 day
4T1 [16] = assay: Antitumor activity against mouse 4T1 cells implanted in BALB/c mouse assessed as increase in number of lung nodules at 15 mg/kg, ip measured for 7 days by fluorescence based assay; type: functional, organism-based; details: time 7.0 day

Tmax [2]: 2 h
pIC50 (Histone deacetylase 8): 4.97
pIC50 [3]: 4.59
half-life [7]: 0.639 h
Compound: CCCNNC(=O)c1cnc(NCc2ccc(OC)cc2)cn1
pIC50 (MDA-MB-231): 6.13
IC50 at 72 h [1]: 239 µM
selectivity ratio [4]: 385
selectivity ratio [5]: 286
Activity (4T1 [6]): 38.8%
Activity (4T1 [8]): 1.78 g
Activity (4T1 [9]): Active
Activity (4T1 [10]): Active
Activity [11]: Non-Toxic
Activity [12]: Non-Toxic
Activity [13]: Non-Toxic
Activity [14]: Non-Toxic
Activity [15]: Non-Toxic
Activity (4T1 [16]): Active
